Measurements reported in US7560279B2, “Method of proliferating human hepatocytes and method for obtaining human hepatocytes” (Hiroshima Industrial Promotion Organization, priority 2002, dated 2009).

Assays:
[1] = system: T1, CYP2C9; assay: Diclofenac 4-hydroxylation activity in mouse liver microsomes; assay type: in vivo; conditions: liver microsomes of uPA(-/-)/SCID mouse
T1 construct: to check activity of CYP2C9 in the microsomal fraction sampled from a mouse; from tissue; host or cells: liver microsomal fraction of human-hepatocyte-transplanted chimeric mice (uPA/SCID); donor (human) microsome as comparison
T1 sequence (P11712 whole entry): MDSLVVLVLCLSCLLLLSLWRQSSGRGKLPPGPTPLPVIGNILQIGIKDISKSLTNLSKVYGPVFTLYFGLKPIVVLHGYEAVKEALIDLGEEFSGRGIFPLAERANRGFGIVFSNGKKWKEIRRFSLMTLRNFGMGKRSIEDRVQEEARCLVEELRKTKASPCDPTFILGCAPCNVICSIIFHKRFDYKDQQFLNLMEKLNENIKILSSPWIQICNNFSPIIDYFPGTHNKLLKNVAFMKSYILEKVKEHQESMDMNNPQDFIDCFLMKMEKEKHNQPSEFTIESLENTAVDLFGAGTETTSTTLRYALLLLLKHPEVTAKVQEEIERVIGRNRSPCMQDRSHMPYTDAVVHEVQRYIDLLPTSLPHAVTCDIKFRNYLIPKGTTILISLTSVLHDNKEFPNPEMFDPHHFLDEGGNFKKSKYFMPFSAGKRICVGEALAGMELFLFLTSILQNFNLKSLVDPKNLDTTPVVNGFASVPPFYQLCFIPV
Method: Further, to check activity of CYP2C9 in the microsomal fraction sampled from a mouse, diclofenac 4-hydroxylation activity was measured by adding diclofenac to the microsome. In consequence, diclofenac 4-hydroxylation activity was little detected in the uPA(−/−)/SCID mouse, and induction of activity by administration of a complement inhibitor was not observed also. […] In a chimeric mouse with 89% of replacement ratio, diclofenac 4-hydroxylation activity was confirmed higher than that of donor (human) microsome (FIG. 9).

[2] = system: human complement produced by human hepatocytes; assay: Complement inhibitor given to human-hepatocyte chimeric mice: survival; assay type: in vivo, mouse; conditions: 200 μl of 2 mg/ml, every 2 days to twice a day; human albumin in blood exceeded 3 mg/ml
Method: Also, human hepatocytes in the mouse liver tissue were stained immunologically using an anti-human complement C3 antibody, and presence of a complement C3 in human hepatocytes was confirmed. Therefore, 200 μl of a complement inhibitor (Futhan®) with concentration of 2 mg/ml was administered into the mouse with increased human albumin concentration. Administration frequency was started from once per 2 days. Change in body weight was checked every day, and administration frequency or dose was increased when decrease in body weight was observed (FIG. 3). As the results, the mice with human albumin concentration in blood over 2 mg/ml received the complement inhibitor (Futhan®) every 2 days, and those over 4 mg/ml received every day, and further, those over 6 mg/ml received twice a day (FIG. 3).

[3] = system: human complement (hC3a); assay: Human complement (hC3a) in blood of chimeric mice by ELISA; assay type: in vivo, mouse; conditions: administered vs non-administered chimeric mice
Method: Further, concentration of the human complement (hC3a) in blood of chimeric mice administered or non-administered with the complement inhibitor (Futhan®) was measured by ELISA method. In consequence, it was confirmed that hC3a concentration was lower in chimeric mice administered with the complement inhibitor compared with non-administered mice (FIG. 4).

[4] = system: human hepatocytes; assay: Human albumin in blood of chimeric mice (ELISA); assay type: in vivo; conditions: 60 mg/kg intraperitoneally before transplantation; compared with chimeric uPA-Tg(+/+)/SCID mouse
Method: From 1 week after transplantation of human hepatocytes, 10 μl blood samples were taken from the tail of a mouse once or twice per a week, and concentration of human albumin was measured using Quantitative ELISA immunoassay (Bethyl Laboratories Inc.).
Then, the uPA-Tg(+/−)/SCID and the uPA-Tg(+/+)/SCID mice, which were inoculated with 60 mg/kg of retrorsine intraperitoneally, were transplanted with human hepatocytes similarly as in Example 1 to prepare chimeric mice.
As to one chimeric mouse prepared in Example 1, at 100 days after transplantation of human hepatocytes, an anti-mouse Fas antibody which leads mouse hepatocytes to apoptosis by reaction with a Fas antigen thereof was inoculated (0.2 μg/g body weight) into the abdominal cavity of said chimeric mouse twice at the interval of 1 week.

[5] = system: normalized mouse hepatocytes; assay: Growth inhibition of normalized mouse hepatocytes in uPA-Tg/SCID mice; assay type: in vivo; conditions: 30 or 60 mg/kg intraperitoneally
Method: Retrorsine was inoculated intraperitoneally in the amount of 30 or 60 mg/kg into a uPA-Tg(+/−)/SCID mouse and a uPA-Tg(+/+)/SCID mouse. As the result, number of colonies of normalized hepatocytes caused by deletion of introduced uPA gene (uPA-Tg(−/−)/SCID) was reduced in the uPA-Tg(+/−)/SCID mouse (FIG. 12).

For `N=C(N)c1ccc2cc(OC(=O)c3ccc(N=C(N)N)cc3)ccc2c1` [Futhan, nafamostat mesilate], the “induction of diclofenac 4-hydroxylation activity” value [1] was “not observed”, the “survival of chimeric mouse” value [2] was “could live for long period” and the “hC3a concentration in blood” value [3] was “lower”.

For retrorsine, the “human albumin concentration in blood of chimeric uPA-Tg(+/-)/SCID mouse” value [4] was “increased to the same level” and the “number of colonies of normalized hepatocytes caused by deletion of introduced uPA gene” value [5] was “reduced”.
